Data as given in patent US8481678B2, “Peptide-based tooth whitening reagents” (E I du Pont de Nemours and Company, priority 2009, dated 2013).

tested on: pellicle coated bovine enamel; assay: Phage ELISA on pellicle-coated bovine enamel (30 min in vivo pellicle), Example 13; assay type: binding, human; settings: 10^11 pfu, 30 min at 37° C., normalized to an internal control
Procedure: A total of 29 selected phage candidates from Table 14 were used in phage ELISA Experiment to determine binding affinity and coverage of each phage on pellicle substrates. Purified phage lysates were used for binding to pellicle coated bovine enamel using an anti-M13 phage antibody conjugated to horseradish-peroxidase, followed by the addition of chromogenic agent TMB, obtained from Pierce Biotechnology (Rockford, Ill.). The plates were read at A450nm.
The wells were filled with 1 mL of 10^11 pfu purified phage stock which was prepared by diluting in blocking buffer. […] The non-binding phage was removed by washing 5 times with PBST. […] The conjugate solution was removed and was washed 3 times with PBST.

Row | Sequence | O.D. at 450 nm (normalized)
1 | NGNNHTDIPNRSSYTGGSFA (Synthetic oral-surface binding peptide) [DenP 01] | 1.002
2 | GPQHVLMQDTHQGYAFDN (Synthetic oral-surface binding peptide) [DenP 16] | 2.190
3 | DTIHPNKMKSPSSPL (Synthetic oral-surface binding peptide) [DenP 26] | 1.039
4 | AVVPADLNDHANHLS (Synthetic oral-surface binding peptide) [DenP 10] | 1.619
5 | SNATMYNIQSHSHHQ (Synthetic oral-surface binding peptide) [DenP 24] | 0.979
6 | HKNAIQPVNDATTLDTTM (Synthetic oral-surface binding peptide) [DenP 09] | 1.364
7 | DLGTFPNRTLKMAAH (Synthetic oral-surface binding peptide) [DenP 11] | 1.663
8 | DHNNRQHAVEVRENKTHTAR (Synthetic oral-surface binding peptide) [DenP 21] | 0.728
9 | TNDLHANPFTGTYIAPDPTS (Synthetic oral-surface binding peptide) [DenP 30] | 1.082
10 | HDPNHLTHQARTIYRNANHT (Synthetic oral-surface binding peptide) [DenP 23] | 1.236
11 | APPTYQTASYPHNLPSKRKM (Synthetic oral-surface binding peptide) [DenP 28] | 1.203
12 | TMTNHVYNSYTEKHSSTHRS (Synthetic oral-surface binding peptide) [DenP 02] | 1.951
13 | KAPIANMLQPHSYQYSVA (Synthetic oral-surface binding peptide) [DenP 18] | 1.143
14 | HKNENIMQYNVNDRWHITPA (Synthetic oral-surface binding peptide) [DenP 32] | 1.441
15 | TTGSSSQADTSASMSIVPAH (Synthetic oral-surface binding peptide) [DenP 17] | 0.971
16 | QVPDYLSPTHQKKAFLEIPT (Synthetic oral-surface binding peptide) [DenP 29] | 0.976
17 | YLLPKDQTTAPQVTPIVQHK (Synthetic oral-surface binding peptide) [DenP 05] | 1.087
18 | GMPTRYYHNTPPHLTPKF (Synthetic oral-surface binding peptide) [DenP 08] | 1.182
19 | EFPYYNDNPPNPERHTLR (Synthetic oral-surface binding peptide) [DenP 07] | 1.500
20 | QAAQVHMMQHSRPTT (Synthetic oral-surface binding peptide) [DenP 13] | 0.845
21 | IYPNESMSTSNVRGPYHP (Synthetic oral-surface binding peptide) [DenP 22] | 1.420
22 | SEARARTFNDHTTPMPII (Synthetic oral-surface binding peptide) [DenP 14] | 2.498
23 | IPWWNIRAPLNAGGG [Control, reference compound] | 1.000
24 | ANELSTYAQTNPGSG (Synthetic oral-surface binding peptide) [DenP 25] | 0.909
25 | VEPATKNMREARSSTQMRRI (Synthetic oral-surface binding peptide) [DenP 04] | 1.421
26 | TYQGVPSWPAVIDDAIRR (Synthetic oral-surface binding peptide) [DenP 19] | 1.052
27 | ELDHDSRHYMNGLQRKVT (Synthetic oral-surface binding peptide) [DenP 15] | 1.112
28 | FDGIGLGTATRHQNR (Synthetic oral-surface binding peptide) [DenP 12] | 2.079
29 | VNPNWVETQALHQPPGNT (Synthetic oral-surface binding peptide) [DenP 20] | 1.298

tested on: pellicle-coated HAP disks (tooth pellicle); assay: Phage ELISA on pellicle-coated HAP disks; assay type: binding, human; settings: over 10^10 pfu phage, TBST-0.5% washes, no-phage control 0.218
Description: A total of 20 selected phage candidates (Example 1) were used in a phage ELISA experiment. Purified phage lysates were used for binding to pellicle-coated HAP disks using an anti-M13 phage antibody conjugated to horseradish-peroxidase, followed by the addition of chromogenic agent TMB (3,3′,5,5′-tetramethylbenzidine), obtained from Pierce Biotechnology (Item #34021; Rockford, Ill.). The plates were read at A450 nm.
For each phage candidate to be tested, the pellicle-coated HAP disks (3 mm diameter) was incubated for 1 h at room temperature with 200 μL of blocking buffer, consisting of 2% non-fat dry milk (Schleicher & Schuell, Inc.) in TBS. […] The tube was rinsed 6 times with wash buffer consisting of TBST-0.05%. The wells were filled with 200 μL of TBST-0.5% containing 1 mg/mL BSA (bovine serum albumin) and then 10 μL (over 10^10 pfu) of purified phage stock was added. The samples were incubated at room temperature for 60 min with slow shaking. The non-binding phage were removed by washing 6 times with TBST-0.5%. Then, 100 μL of horseradish peroxidase/anti-M13 antibody conjugate (Amersham USA, Piscataway, N.J.), diluted 1:500 in the blocking buffer, was added and incubated for 1 hour at room temperature. The conjugate solution was removed and was washed 6 times with TBST-0.5%.

Row | Sequence | O.D. at 450 nm
30 | NNTSADNPPETDSKHHLSMS (Tooth-binding peptide) [Pell 12] | 0.521
31 | ASVSNYPPIHHLATSNTTVN (Tooth-binding peptide) [Pell 2] | 0.75
32 | TPCATYPHFSGCRA (Tooth-binding peptide) [Pell 19] | 0.731
33 | DECMHGSDVEFCTS (Tooth-binding peptide) [Pell 4] | 0.664
34 | NNTWPEGAGHTMPSTNIRQA (Tooth-binding peptide) [Pell 13] | 0.598
35 | EPTHPTMRAQMHQSLRSSSP (Tooth-binding peptide) [Pell 8] | 0.712
36 | DECMEPLNAAHCWR (Tooth-binding peptide) [Pell 3] | 0.49
37 | DPNESNYENATTVSQPTRHL (Tooth-binding peptide) [Pell 7] | 0.831
38 | GNTDTTPPNAVMEPTVQHKW (Tooth-binding peptide) [Pell 9] | 0.755
39 | WCTDFCTRSTPTSTSRSTTS (Tooth-binding peptide) [Pell 20] | 0.715
40 | DLCSSPSTWGSCIR (Tooth-binding peptide) [Pell 6] | 0.735
41 | NPTATPHMKDPMHSNAHSSA (Tooth-binding peptide) [Pell 14] | 0.7
42 | NGPEVRQIPANFEKL (Tooth-binding peptide) [Pell 11] | 0.607
43 | NPTDSTHMMHARNHE (Tooth-binding peptide) [Pell 16] | 0.578
44 | QHCITERLHPPCTK (Tooth-binding peptide) [Pell 17] | 0.614
45 | AHPESLGIKYALDGNSDPHA (Tooth-binding peptide) [Pell 1] | 0.739
46 | TPCAPASFNPHCSR (Tooth-binding peptide) [Pell 18] | 0.416
47 | NGPDMVQSVGKHKNS (Tooth-binding peptide) [Pell 10] | 0.729
48 | DLCSMQMMNTGCHY (Tooth-binding peptide) [Pell 5] | 0.83
49 | NPTDHIPANSTNSRVSKGNT (Tooth-binding peptide) [Pell 15] | 0.567
